Test results: the NIST ThermoML archive (doi:10.1016/j.jct.2014.08.018)
Values joined by “and” are separate entries in the source; they are usually repeats but may differ in a detail not shown here. Identical values can stand only once. Numbers after ± are expanded uncertainties.

Conditions: 101.33 kPa, Liquid; for mass density: Vibrating tube method; for viscosity: Capillary tube (Ostwald / Ubbelohde) method

Row | SMILES | mass density (288.15 K) [kg/m3] | mass density (298.15 K) [kg/m3] | viscosity (308.05 K) [mPa·s] | mass density (308.15 K) [kg/m3] | mass density (318.15 K) [kg/m3] | viscosity (328.08 K) | mass density (328.15 K) [kg/m3] | viscosity (288.17 K) [mPa·s] | viscosity (298.11 K) | viscosity (318.06 K) [mPa·s] | also measured
1 | CCCCCC[n+]1ccn(C)c1.O=S(=O)([N-]S(=O)(=O)C(F)(F)F)C(F)(F)F | 1381.3 ± 1.5 | 1372.2 ± 1.5 | 44.87 ± 0.94 | 1363 ± 1.5 | 1353.9 ± 1.4 | 21.92 ± 0.46 mPa·s and 21.92 ± 0.52 mPa·s | 1344.9 ± 1.4 |  |  |  | viscosity (288.19 K): 115.89 ± 2.8 mPa·s and 115.81 ± 3.1 mPa·s; viscosity (298.12 K): 69.47 ± 1.5 mPa·s and 69.62 ± 1.7 mPa·s; viscosity (308.11 K): 44.86 ± 1.1 mPa·s; viscosity (317.95 K): 30.77 ± 0.74 mPa·s; viscosity (318.07 K): 30.77 ± 0.65 mPa·s
2 | CCCCn1cc[n+](C)c1.N#CN=C=[N-] [1-butyl-3-methylimidazolium dicyanamide] | 1066.9 ± 1.1 | 1060.5 ± 1.1 | 20.91 ± 0.44 | 1054.2 ± 1.1 | 1047.9 ± 1.1 | 11.55 ± 0.24 mPa·s | 1041.7 ± 1.1 | 45.86 ± 0.96 | 30.15 ± 0.63 mPa·s and 30.15 ± 0.93 mPa·s | 15.19 ± 0.32 | viscosity (288.22 K): 45.82 ± 1.4 mPa·s; viscosity (308.12 K): 20.94 ± 0.64 mPa·s; viscosity (318.05 K): 15.21 ± 0.47 mPa·s; viscosity (328.05 K): 11.56 ± 0.36 mPa·s
3 | CCCCCCCCCCCCCC[P+](CCCCCC)(CCCCCC)CCCCCC.N#C[N-]C#N [tetradecyl(trihexyl)phosphonium dicyanamide] | 903.4 ± 0.9 | 897.6 ± 0.9 | 210.07 ± 6.4 | 891.9 ± 0.9 | 886.3 ± 0.9 | 83.81 ± 1.9 mPa·s | 880.7 ± 0.9 | 665.15 ± 30 | 362.9 ± 13 mPa·s | 129.77 ± 3.3 | viscosity (288.31 K): 664.13 ± 34 mPa·s; viscosity (298.07 K): 362.32 ± 16 mPa·s; viscosity (308.09 K): 210.09 ± 8.3 mPa·s; viscosity (318.01 K): 129.78 ± 4.6 mPa·s; viscosity (328.03 K): 83.95 ± 2.8 mPa·s
